“And” between values parts separate entries of the source, which are not always exact repeats. Identical values can stand only once.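 GI50: concentration for 50% inhibition of growth. Definition used: TGI = concentration required for complete inhibition of growth.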
Key:
Assay in all cases: DTP human tumour cell line panel, 384-well format
[1] = test system: CCRF-CEM leukemia
[2] = test system: 786-0 renal
[3] = test system: MDA-MB-435 melanoma
[4] = test system: HOP-92 NSCLC
[5] = test system: SR leukemia
[6] = test system: HCT-116 colon
[7] = test system: U251 glioblastoma
[8] = test system: MDA-MB-231 breast
[9] = test system: SF-295 CNS
[10] = test system: NCI-H226 lung
[11] = test system: SK-MEL-5 melanoma
[12] = test system: SF-539 CNS
[13] = test system: OVCAR-5 ovarian
[14] = test system: SNB-19 CNS
[15] = test system: OVCAR-8 ovarian
[16] = test system: MCF7 breast
[17] = test system: UO-31 renal
[18] = test system: K-562 leukemia
[19] = test system: MALME-3M melanoma
[20] = test system: UACC-62 melanoma
[21] = test system: M14 melanoma
[22] = test system: NCI-H522 lung
[23] = test system: HOP-62 NSCLC
[24] = test system: LOX IMVI melanoma
[25] = test system: NCI-H23 lung
[26] = test system: HS 578T breast
[27] = test system: NCI-H322M lung
[28] = test system: BT-549 breast
[29] = test system: HT29 colon
[30] = test system: OVCAR-4 ovarian
[31] = test system: KM12 colon
[32] = test system: COLO 205 colon
[33] = test system: HCC-2998 colon
[34] = test system: NCI/ADR-RES ovarian
[35] = test system: MOLT-4 leukemia
[36] = test system: RXF 393 renal
[37] = test system: UACC-257 melanoma
[38] = test system: TK-10 renal
[39] = test system: SK-OV-3 ovarian
[40] = test system: ACHN renal
[41] = test system: SN12C renal
[42] = test system: SK-MEL-2 melanoma
[43] = test system: HL-60(TB) leukemia
[44] = test system: SNB-75 CNS
[45] = test system: IGROV1 ovarian
[46] = test system: OVCAR-3 ovarian
[47] = test system: T-47D breast
[48] = test system: SF-268 CNS
[49] = test system: MDA-MB-468 breast
[50] = test system: PC-3 prostate
[51] = test system: NCI-H460 NSCLC
[52] = test system: HCT-15 colon
[53] = test system: SK-MEL-28 melanoma
[54] = test system: A549 NSCLC
[55] = test system: A498 renal
[56] = test system: SW-620 colon
[57] = test system: CAKI-1 renal
[58] = test system: RPMI-8226 leukemia
[59] = test system: DU-145 prostate
[60] = test system: EKVX NSCLC

## COc1cccc2c1C(=O)c1c(O)c3c(c(O)c1C2=O)C[C@@](O)(C(=O)CO)C[C@@H]3OC1CC(N)C(O)C(C)O1 (stereo partly specified)
[1]
  GI50: 8.6 nM and < 11.2 nM and < 10 nM
  TGI: 27.4 nM and 19.4 nM and 17.7 nM
[2]
  GI50: 42.9 nM and 25.3 nM and 46.5 nM
  TGI: 227 nM and 226 nM and 1070 nM
[3]
  GI50: 219 nM and 232 nM and 150 nM
  TGI: 632 nM and 669 nM and 599 nM
[4]
  GI50: 24.6 nM and 35.9 nM and 66.9 nM
[5]
  GI50: 4 nM
  TGI: 7.78 nM
[6]
  GI50: 29.4 nM and 16.5 nM
  TGI: 972 nM and 151 nM
[7]
  GI50: 20 nM and 18.4 nM and 14.3 nM
[8]
  GI50: 81.5 nM and 43.4 nM and 36.9 nM
  TGI: 523 nM and 275 nM and 318 nM
[9]
  GI50: 49.2 nM and 32.3 nM and 52.2 nM
  TGI: 169 nM and 135 nM and 447 nM
[10]
  GI50: 34.4 nM and 36.8 nM and 75.2 nM
  TGI: 131 nM and 156 nM and 299 nM
[11]
  GI50: 41.1 nM and 13.1 nM
  TGI: 166 nM and 58.6 nM
[12]
  GI50: 39.9 nM and 34.8 nM and 35.8 nM
  TGI: 264 nM and 168 nM and 173 nM
[13]
  GI50: 194 nM and 260 nM and 159 nM
  TGI: 1040 nM and 2130 nM and 720 nM
[14]
  GI50: 36.2 nM and 32.2 nM and 34.3 nM
[15]
  GI50: 76.4 nM and 55.9 nM and 58 nM
  TGI: 466 nM and 236 nM and 223 nM
[16]
  GI50: 34 nM and 22.8 nM and 19.1 nM
  TGI: 3210 nM and 1370 nM and 12200 nM
[17]
  GI50: 360 nM and 508 nM and 907 nM
  TGI: 1630 nM and 1530 nM and 2280 nM
[18]
  GI50: 39.7 nM and 43.9 nM and 45.6 nM
  TGI: 340 nM and 245 nM and 229 nM
[19]
  GI50: 38.1 nM and 45.6 nM and 54.7 nM
  TGI: 153 nM and 166 nM and 191 nM
[20]
  GI50: 25.3 nM and 28.6 nM and 14.8 nM
  TGI: 133 nM and 155 nM and 142 nM
[21]
  GI50: 51.6 nM and 44.6 nM and 37.1 nM
  TGI: 200 nM and 182 nM and 190 nM
[22]
  GI50: 25.3 nM and 18 nM and 11.1 nM
  TGI: 75.6 nM and 69.7 nM and 117 nM
[23]
  GI50: 40.6 nM and 23.8 nM and 34.4 nM
  TGI: 145 nM and 91.6 nM and 125 nM
[24]
  GI50: 32 nM and 23.9 nM and 21.9 nM
  TGI: 235 nM and 157 nM and 163 nM
[25]
  GI50: 43 nM and 27.4 nM and 28.5 nM
  TGI: 126 nM and 89 nM and 133 nM
[26]
  GI50: 16.7 nM and 26.9 nM and 109 nM
  TGI: 133 nM and 141 nM and 322 nM
[27]
  GI50: 365 nM and 270 nM and 326 nM
  TGI: 985 nM and 914 nM and 1830 nM
[28]
  GI50: 23.3 nM and 18.2 nM and 13.6 nM
  TGI: 128 nM and 70.2 nM and 130 nM
[29]
  GI50: 114 nM and 119 nM and 106 nM
  TGI: 490 nM and 303 nM and 263 nM
[30]
  GI50: 310 nM and 246 nM and 263 nM
  TGI: 983 nM and 954 nM and 1910 nM
[31]
  GI50: 39.6 nM and 41 nM
  TGI: 423 nM and 212 nM
[32]
  GI50: 17.8 nM
  TGI: 328 nM and 179 nM
[33]
  GI50: 35.6 nM and 17.6 nM
  TGI: 176 nM and 92.6 nM
[34]
  GI50: 5900 nM and 7690 nM and 22600 nM
  TGI: 24300 nM and 34300 nM and > 100000 nM
[35]
  GI50: 4.08 nM and < 10 nM
  TGI: 7.81 nM
[36]
  GI50: 37.2 nM and 41 nM and 117 nM
  TGI: 211 nM and 114 nM and 274 nM
[37]
  GI50: 109 nM and 118 nM and 125 nM
  TGI: 389 nM and 255 nM and 261 nM
[38]
  GI50: 78 nM and 88.7 nM
  TGI: 461 nM and 328 nM
[39]
  GI50: 68.1 nM and 75.6 nM and 80.2 nM
  TGI: 334 nM and 377 nM and 409 nM
[40]
  GI50: 69.2 nM and 64 nM and 171 nM
  TGI: 407 nM and 287 nM and 591 nM
[41]
  GI50: 35.8 nM and 31.4 nM and 33.5 nM
  TGI: 162 nM and 166 nM and 181 nM
[42]
  GI50: 56.5 nM and 86 nM and 68.1 nM
  TGI: 128 nM and 179 nM and 130 nM
[43]
  GI50: 5.95 nM and < 10 nM
  TGI: 14.5 nM and 11.8 nM
[44]
  GI50: 40.3 nM and 31.7 nM and 43.3 nM
  TGI: 126 nM and 100 nM and 174 nM
[45]
  GI50: 72.5 nM and 46.7 nM
  TGI: 1220 nM and 231 nM
[46]
  GI50: 73.4 nM and 116 nM
  TGI: 539 nM and 821 nM
[47]
  GI50: 32.9 nM and 32 nM and 40.8 nM
[48]
  GI50: 35.2 nM and 32.6 nM and 36.3 nM
  TGI: 207 nM and 138 nM and 213 nM
[49]
  GI50: 26.2 nM and 14.8 nM and 12.7 nM
  TGI: 70 nM and 36.6 nM and 28.3 nM
[50]
  GI50: 189 nM and 154 nM and 139 nM
  TGI: 765 nM and 626 nM and 467 nM
[51]
  GI50: 9.14 nM
  TGI: 86.1 nM and 98.9 nM
[52]
  GI50: 202 nM and 111 nM and 89 nM
  TGI: 2130 nM and 1360 nM and 1490 nM
[53]
  GI50: 84.4 nM and 72.7 nM and 101 nM
  TGI: 336 nM and 208 nM and 237 nM
[54]
  GI50: 58.7 nM and 26.3 nM and 41.3 nM
  TGI: 473 nM and 188 nM and 222 nM
[55]
  GI50: 38.2 nM and 30.6 nM and 50.9 nM
  TGI: 472 nM and 184 nM and 244 nM
[56]
  GI50: 23.3 nM and 44.8 nM and 19.6 nM
  TGI: 463 nM and 741 nM and 501 nM
[57]
  GI50: 41.9 nM and 25 nM
  TGI: 504 nM and 160 nM
[58]
  GI50: 7.64 nM and 11.2 nM and < 10 nM
  TGI: 40.3 nM and 24.6 nM and 21.9 nM
[59]
  GI50: 33.7 nM and 18.5 nM
  TGI: 148 nM and 214 nM
[60]
  GI50: 165 nM and 248 nM and 419 nM
  TGI: 704 nM and 1280 nM and 4790 nM
